Measurements reported in patent publication US20260256792A1, “TREATMENT OF CHRONIC SPONTANEOUS URTICARIA BY ADMINISTERING (R)-2-[3-[4-AMINO-3-(2-FLUORO-4-PHENOXY-PHENYL)PYRAZOLO[3,4-D]PYRIMIDIN-1-YL]PIPERIDINE-1-CARBONYL]-4-METHYL-4-[4-(OXETAN-3-YL)PIPERAZIN-1-YL]PENT-2-ENENITRILE” (priority 2023, published 2026).

Test system: moderate-to-severe chronic spontaneous urticaria (CSU)
Experiment: Phase 2 CSU study: urticaria activity score over 7 days (UAS7)
Type: in vivo, human
Parameters: key to UAS7 Median / UAS7 Change from baseline Median / UAS7 change from baseline, Q1 / UAS7 change from baseline, Q3 / UAS7 change from baseline, Max / UAS7 Change from baseline LS Mean (SE): UAS7 points; daily UAS score ranges 0–6 points/day, over 7 days
Description: The study comprises a 12 week, randomized, double-blind, placebo-controlled, multi-center, dose-ranging efficacy and safety phase, followed by a 40 week open label extension (OLE) phase (see FIG. 1). The study consists of three phases and an optional OLE phase. […] Clinically, CSU is characterized by the spontaneous and recurrent appearance of pruritic hives. The proposed primary endpoints were the UAS7 at Week 12 in EU and EU reference countries and the ISS7 in the US. Regardless of where a participant was from, all assessments were the same. The UAS7 score is a composite score containing both the HSS7 and the ISS7. This allowed a global assessment of the two key components of urticaria: hives and itch. […] The UAS is a validated PRO measure. […] The daily UAS scores range from 0 to 6 point/day. […] Patients were to complete the UAS using the e-diary. […] The following secondary endpoints were to be analyzed using the same approach as for the primary endpoint: • Change from baseline in UAS7 at Week 4 • Change from baseline in UAS7 at Week 12 (for US and US reference countries) • Change from baseline in ISS7 at Week 12 (except US and US reference countries) • Change from baseline in HSS7 at Week 12 The following responder secondary endpoints were to be analyzed using the Cochran-Mantel-Haenszel test adjusted by region: • Proportion of participants with UAS7<6 at Week 12 • Proportion of participants with UAS7=0 at Week 12 Participants who received selected prohibited medications and/or rescue medications were to be considered as non-responders for time points after the medication usage. For other participants, all available data including those collected during the off-treatment period were to be used to determine the responder/non-responder status. Missing data were to be considered as non-responders.

[1] = Week 4, 400 mg TID, omalizumab-naive participants
[2] = Week 5, 400 mg BID, ITT population
[3] = Week 5, 400 mg BID, Omalizumab-Naïve
[4] = Week 5, 400 mg BID, Prior Omalizumab Use
[5] = Week 5, 400 mg BID, omalizumab-naive participants
[6] = Week 5, 400 mg QPM, ITT population
[7] = Week 5, 400 mg QPM, Omalizumab-Naïve
[8] = Week 5, 400 mg QPM, Prior Omalizumab Use
[9] = Week 5, 400 mg QPM, omalizumab-naive participants
[10] = Week 5, 400 mg TID, ITT population
[11] = Week 5, 400 mg TID, Omalizumab-Naïve
[12] = Week 5, 400 mg TID, Prior Omalizumab Use
[13] = Week 5, 400 mg TID, omalizumab-naive participants

CC(C)(C=C(C#N)C(=O)N1CCC[C@@H](n2nc(-c3ccc(Oc4ccccc4)cc3F)c3c(N)ncnc32)C1)N1CCN(C2COC2)CC1 [rilzabrutinib, (R)-2-[3-[4-amino-3-(2-fluoro-4-phenoxy-phenyl)pyrazolo[3,4-d]pyrimidin-1-yl]piperidine-1-carbonyl]-4-methyl-4-[4-(oxetan-3-yl)piperazin-1-yl]pent-2-enenitrile]
UAS7 Percent change from baseline Median (Week 4, 400 mg TID, Prior Omalizumab Use): −68.48% | Non-responder, UAS7 reduction from baseline of 10 points or more [1]: 11 (31.4) n (%) | OR for rilzabrutinib vs. placebo, UAS7 reduction of 10 points or more [1]: 3.855 | RRD (%) for rilzabrutinib vs. placebo, UAS7 reduction of 10 points or more [1]: 31.2 % | Responder, UAS7 reduction from baseline of 10 points or more [1]: 24 (68.6) n (%) | Non-responder, UAS7 reduction from baseline of 10 points or more [2]: 19 (46.3) n (%) | OR for rilzabrutinib vs. placebo, UAS7 reduction of 10 points or more [2]: 1.238 | RRD (%) for rilzabrutinib vs. placebo, UAS7 reduction of 10 points or more [2]: 5.2 % | Responder, UAS7 reduction from baseline of 10 points or more [2]: 22 (53.7) n (%) | UAS7 Change from baseline Mean (SD) [3]: −12.56 (11.55) | UAS7 Change from baseline Median [3]: −12.67 | UAS7 Mean (SD) [3]: 17.22 (13.36) | UAS7 Median [3]: 16.50 | UAS7 Percent change from baseline Mean (SD) [3]: −44.07 (39.75) % | UAS7 Percent change from baseline Median [3]: −40.89% | UAS7 Change from baseline Mean (SD) [4]: −25.00 (18.42) | UAS7 Change from baseline Median [4]: −29.00 | UAS7 Mean (SD) [4]: 9.75 (16.94) | UAS7 Median [4]: 2.00 | UAS7 Percent change from baseline Mean (SD) [4]: −71.30 (48.04) % | UAS7 Percent change from baseline Median [4]: −92.59% | Non-responder, UAS7 reduction from baseline of 10 points or more [5]: 16 (45.7) n (%) | OR for rilzabrutinib vs. placebo, UAS7 reduction of 10 points or more [5]: 1.329 | RRD (%) for rilzabrutinib vs. placebo, UAS7 reduction of 10 points or more [5]: 7.0 % | Responder, UAS7 reduction from baseline of 10 points or more [5]: 19 (54.3) n (%) | Non-responder, UAS7 reduction from baseline of 10 points or more [6]: 21 (55.3) n (%) | OR for rilzabrutinib vs. placebo, UAS7 reduction of 10 points or more [6]: 0.950 | RRD (%) for rilzabrutinib vs. placebo, UAS7 reduction of 10 points or more [6]: −1.3 % | Responder, UAS7 reduction from baseline of 10 points or more [6]: 17 (44.7) n (%) | UAS7 Change from baseline Mean (SD) [7]: −10.65 (9.52) | UAS7 Change from baseline Median [7]: −8.50 | UAS7 Mean (SD) [7]: 20.63 (9.18) | UAS7 Median [7]: 18.63 | UAS7 Percent change from baseline Mean (SD) [7]: −32.46 (26.63) % | UAS7 Percent change from baseline Median [7]: −27.86% | UAS7 Change from baseline Mean (SD) [8]: −22.00 (NC) | UAS7 Change from baseline Median [8]: −22.00 | UAS7 Mean (SD) [8]: 19.00 (NC) | UAS7 Median [8]: 19.00 | UAS7 Percent change from baseline Mean (SD) [8]: −53.66 (NC) % | UAS7 Percent change from baseline Median [8]: −53.66% | Non-responder, UAS7 reduction from baseline of 10 points or more [9]: 21 (56.8) n (%) | OR for rilzabrutinib vs. placebo, UAS7 reduction of 10 points or more [9]: 0.877 | RRD (%) for rilzabrutinib vs. placebo, UAS7 reduction of 10 points or more [9]: −3.4 % | Responder, UAS7 reduction from baseline of 10 points or more [9]: 16 (43.2) n (%) | Non-responder, UAS7 reduction from baseline of 10 points or more [10]: 12 (29.3) n (%) | OR for rilzabrutinib vs. placebo, UAS7 reduction of 10 points or more [10]: 2.703 | RRD (%) for rilzabrutinib vs. placebo, UAS7 reduction of 10 points or more [10]: 23.5 % | Responder, UAS7 reduction from baseline of 10 points or more [10]: 29 (70.7) n (%) | UAS7 Change from baseline Mean (SD) [11]: −16.74 (11.67) | UAS7 Change from baseline Median [11]: −15.17 | UAS7 Mean (SD) [11]: 13.41 (10.60) | UAS7 Median [11]: 14.00 | UAS7 Percent change from baseline Mean (SD) [11]: −54.42 (33.80) % | UAS7 Percent change from baseline Median [11]: −50.00% | UAS7 Change from baseline Mean (SD) [12]: −24.11 (14.81) | UAS7 Change from baseline Median [12]: −20.50 | UAS7 Mean (SD) [12]: 8.92 (10.94) | UAS7 Median [12]: 5.50 | UAS7 Percent change from baseline Mean (SD) [12]: −70.71 (27.72) % | UAS7 Percent change from baseline Median [12]: −73.90% | Non-responder, UAS7 reduction from baseline of 10 points or more [13]: 11 (31.4) n (%) | OR for rilzabrutinib vs. placebo, UAS7 reduction of 10 points or more [13]: 2.512 | RRD (%) for rilzabrutinib vs. placebo, UAS7 reduction of 10 points or more [13]: 22.4 % | Responder, UAS7 reduction from baseline of 10 points or more [13]: 24 (68.6) n (%) | Non-responder, UAS7 reduction from baseline of 10 points or more (Week 6, 400 mg BID, ITT population): 20 (48.8) n (%)
